{"source": "patent US11471467B2", "about": "“Ruthenium complexes for treating cancer which comprises cancer stem cells” (UNIVERSIDADE DE SANTIAGO DE COMPOSTELA, priority 2016, dated 2022)", "key": {"[1]": {"test_system": "guanosine monophosphate (GMP)", "assay": "GMP binding (metallation) assay, HPLC", "settings": "complex 250 μM, GMP 750 μM, 10 mM phosphate buffer pH 7.5, 100 mM NaCl", "procedure": "High-performance liquid chromatography (HPLC) was carried out using Agilent 1100 liquid chromatography-mass spectrometer equipment. Analytical HPLC was carried out using a Phenomenex Luna-C18 reversed-phase analytical column (10×250 mm, 5 μm), 1 mL/min, with different gradients (see below). […] Electrospray ionization mass spectrometry (ESI/MS) was performed with an Agilent 1100 Series LC/MSD VL G1956A model in positive polarity mode.\nFirst, guanosine monophosphate (GMP) metallating capacity of complex 1 was studied. To that end, complex 1 (250 μM) was mixed with 3 equivalents of GMP (750 μM) in 10 mM phosphate buffer (pH=7.5) and 100 mM NaCl.\nTo confirm that GMP metallation is completely orthogonal, competitive experiments were carried out with the other three nucleotides (AMP, CMP, and TMP). Specifically, complex 1 (250 μM) was mixed with GMP (3 equiv, 750 μM), AMP (3 equiv, 750 μM), TMP (3 equiv, 750 μM), and CMP (3 equiv, 750 μM) in 10 mM phosphate buffer (pH=7.5) and 100 mM NaCl.\nTo that end, complex 1 (250 μM) was mixed with GMP (3 equiv, 750 μM) in the presence of H-Lys(Boc)-OH (3 equiv, 750 μM) or Ac-Cys-OH (3 equiv, 750 μM) in 10 mM phosphate buffer (pH=7.5) and 100 mM NaCl.\nComplex 4 (250 μM) was mixed with 3 equivalents of GMP (750 μM) in 10 mM phosphate buffer (pH=7.5) and 100 mM NaCl."}, "[2]": {"test_system": "Panc185 and PancA6L cells", "assay": "Annexin V / DAPI staining of PDAC cells", "format": "cell-based", "description": "FIG. 21. Cytotoxic effects of RuH2O on PDAC sphere cultures. Light micrographs and annexin-V staining of Panc185 and PancA6L cells after 72 hours of treatment with 100 μM of RuH2O.\nFIG. 24. Induction of apoptosis in PDAC cells. Annexin-V staining of PDAC cells treated for 48 hours with 100 or 250 μM of RuH2O.\nThe effect of 100 μM of RuH2O on cultures rich in CSC was confirmed at the microscopic level and by measuring annexin V staining. […] Cell viability determined by the percentage of DAPI negative cells dropped by 50%.\nTo rule out the possibility that the effects mentioned above arise as a result of unspecific cytotoxic effects, adherent cultures (low in CSC) were treated for 48 hours with a single dose of RuH2O (100 or 250 μM) and their subsequent clonogenicity, self-renewal, and tumorigenicity was checked. […] The treated and untreated cells were then trypsinized and the percentage of apoptotic cells was analyzed."}, "c-MYC": {"test_system": "c-MYC", "assay": "c-MYC protein expression by Western blot in HeLa cells", "format": "cell-based", "description": "FIG. 11. (Left) Analysis of the expression levels of c-MYC (light colored bars) and ALAS1 (dark colored bars) by means of qRT-PCR. HeLa cells were incubated for 16 h or 48 h with 100 μM of complex 1 (RuCl), TMPyP4, or 50 μM of 5-FU. The levels are expressed in relation to the expression levels of the GAPDH gene. The values are the average of three experiments, and the error bars indicate standard error. (Right) Analysis of the expression of c-MYC by means of Western blot. HeLa cells were incubated for 16 h with 100 μM of complex 1 (RuCl) and then lysed, and c-MYC was detected by means of SDS-PAGE followed by Western blot with an anti-MYC antibody (right, upper panel). The relative amount of protein in two independent experiments was quantified by means of densitometry (right, lower panel). The data is represented as the factor of change with respect to untreated controls. The error bars indicate the standard deviation of the factor of change with respect to untreated controls.\nFIG. 14. (Left) Transcription levels of c-MYC determined by means of qRT-PCR in the dark (black bars) or after irradiation (60 min, white bars). […] The expression values are relative to the expression of the GAPDH gene. (Right) Expression levels of c-MYC protein determined by means of Western blot in the presence or absence of complex 5. The relative amount of protein with respect to the expression levels of β-actin was quantified by means of densitometry (lower panel). The experimental method was similar to the one described in FIG. 11.\nFIG. 15. […] The light colored bars correspond to expression levels of c-MYC under irradiation conditions whereas the dark colored bars correspond to darkness conditions. […] The relative levels of protein with respect to the expression levels of β-actin were quantified by means of densitometry.\nHeLa cells were incubated to a confluence of 50% in the presence of the indicated concentrations of the assayed agents for 16 h. […] The c-MYC protein was detected by means of an anti-MYC antibody (Santa-Cruz Biotechnologies). […]"}, "[3]": {"test_system": "Panc185 and PancA6L cells", "assay": "ToxiLight BioAssay cytotoxicity (adenylate kinase release)", "format": "cell-based", "description": "FIG. 20. Cytotoxic effects of RuH2O on PDAC cultures. Relative cell death was determined in adherent cultures (low in CSC) and spheres (rich in CSC) of Panc185 (A) and PancA6L (B) at 24, 48, and 72 hours after treatment with the indicated doses of RuH2O.\nIt was then studied if the […] c-MYC expression and the phenotype and transcriptional changes observed were cytotoxic. For this analysis, the ToxiLight™ BioAssay kit, a bioluminescent, non-destructive cytolysis assay kit designed for measuring the adenylate kinase (AK) enzyme released from damaged cells (FIG. 20), was used. Adherent cultures (low in CSC) and cultured spheres (rich in CSC) were treated with increasing doses of RuH2O and cytotoxicity was measured 24, 48, and 72 hours after treatment. In adherent cultures and in both assayed cell lines, toxicity was only observed at 72 hours (3-fold increase in dead cells) when the cells were treated with 250 μM of RuH2O."}}, "data": [{"substance": "[Ru(terpy) (bpy)H2O]^2+ [complex 2]", "values": [{"measurement": "GMP metallation, conversion to monoadduct 3", "setting": "[1]; 30 min at room temperature in the dark", "value": 63, "unit": "%"}, {"measurement": "GMP metallation, conversion to monoadduct 3", "setting": "[1]; 30 min irradiation at 455 nm", "value": "complete conversion"}, {"measurement": "percentage of apoptotic cells", "setting": "[2]; adherent cultures, 100 or 250 μM, 48 hours", "value": "increase in the percentage of apoptotic cells was not observed"}, {"measurement": "appearance of spheres, annexin V staining", "setting": "[2]; spheres, 100 μM, 72 hours", "value": "visually smaller and apoptotic"}, {"measurement": "drop of cell viability (percentage of DAPI negative cells)", "setting": "[2]; spheres, 100 μM, 72 hours", "value": 50, "unit": "%"}, {"measurement": "c-MYC protein expression", "setting": "c-MYC; in the dark", "value": "active both in the dark and upon being irradiated"}, {"measurement": "c-MYC protein expression", "setting": "c-MYC; under irradiation with light", "value": "active both in the dark and upon being irradiated"}, {"measurement": "increase in dead cells", "setting": "[3]; adherent cultures (low in CSC), both cell lines, 250 μM, 72 hours", "value": 3, "unit": "fold"}, {"measurement": "toxicity (ToxiLight)", "setting": "[3]; adherent cultures (low in CSC), single dose 100 or 250 μM, 48 hours", "value": "no toxicity was observed"}, {"measurement": "cell death", "setting": "[3]; spherical cultures (rich in CSC), 100 μM", "value": "induced cell death"}]}]}
